Measured values as given in the METLIN SMRT retention time set (Domingo-Almenara et al. 2019).

Experiment: gradient 5% acetonitrile 3 min, to 50% in 2 min, to 85% in 15 min, held 3 min, 100 µL/min
Settings: column: Zorbax Extend-C18 2.1 x 50 mm; eluents: water / acetonitrile, 0.1% formic acid
How it was run: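 Standards, all pure, were combined into mixtures of ~100 molecules and run at 100 μL/min on a Zorbax Extend-C18 column (2.1 × 50 mm, 1.8 μm) with water and acetonitrile, each containing 0.1% formic acid. A coupled quadrupole time-of-flight mass spectrometer operated in positive and negative ionization mode. Retention time values come from computationally picked adduct peaks, each inspected manually.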

RP-LC retention time | SMILES
1070 s | Cn1c(=O)oc2cc(-c3noc(-c4ccccc4Br)n3)ccc21
970 s | CC(C)c1ccc(NC(=O)Cc2csc3nc(-c4ccccc4)cn23)cc1
725 s | O=C(CCc1c(-c2ccccc2)nc2ccccn12)Nc1ccc(Br)cc1
723 s | CC(C)(C)c1nc(N2CCCCC2)c2ccccc2n1
674 s | COc1ccc(-c2nc3ncccn3c2Nc2ccc3c(c2)OCCO3)cc1
779 s | CCCNC(=O)CCc1c(C)c(C(=O)OCC)c(C)n1C
841 s | CC(C)Sc1ccc(CC(=O)NCC(C)(O)c2ccccc2)cc1 (stereo not given)
732 s | Cc1ccn2cc(-c3cccc(NS(=O)(=O)c4cc(C)c(C)cc4C)c3)nc2c1
1200 s | Cc1nn(-c2ccc(F)cc2)c2nc(N3CCCC(C(=O)NCc4cccc(Cl)c4)C3)sc12 (stereo not given)
808 s | Cc1cccc(-n2cc(C(=O)OCc3cccnc3)c3ccccc3c2=O)c1
1090 s | CC(Oc1cccc2ccccc12)c1nc2c3ccccc3ncn2n1 (stereo not given)
761 s | Cc1ccc(S(=O)(=O)NC2CCN(C(=O)C3CCC3)CC2)cc1
902 s | CC(C)NC(=O)N1CCCC1c1nc(-c2cccc(C(F)(F)F)c2)no1 (stereo not given)
942 s | O=C(CN1C(=O)CCCc2cc(S(=O)(=O)N3CCCCC3)ccc21)NC1CCCCCC1
708 s | CCOC(=O)C1=C(CN2CC(C)CC(C)C2)NC(=O)NC1c1ccc(OC(C)C)cc1 (stereo not given)
835 s | COc1ccc(CNC(=O)C2=C3CCCN3c3ccccc3S2(=O)=O)c(OC)c1
602 s | O=C1CCCN1CCCN(CC(=O)N1CCNCC1)C(=O)c1ccc(C(F)(F)F)cc1
976 s | CC(=O)N1CCc2c(-c3ccccc3)cccc2[C@H]1C
736 s | CCC1(C(=O)Nc2ccc(C)cc2)CCCCC(=O)N1 (stereo not given)
811 s | COc1ccc(C)cc1NC(=O)N1CCC(CC(=O)N2CCCCC2)CC1
958 s | COc1ccc(NC(=O)Cn2nc(C(F)(F)F)c(Br)c2C)cc1OC
857 s | CC(=O)Nc1ccc(S(=O)(=O)N2CCn3cccc3C2c2ccc(F)c(F)c2)cc1 (stereo not given)
694 s | Cc1cc(NC(=O)CN(C)CCC#N)nc2c1c(=O)oc1ccccc12

RP-LC retention time | SMILES
849 s | CC1CCCN(c2ccn3c(=O)n(CC(=O)Nc4cc(F)cc(F)c4)nc3n2)C1 (stereo not given)
1090 s | N#C/C(=C\c1ccc2ccccc2c1)C(=O)c1ccccc1
1200 s | CCc1nc(-c2cccc(C)c2)c(-c2ccnc(NC(=O)c3ccccc3)c2)s1
762 s | CCC(=O)Nc1ccc(-n2cnc(C(=O)NCc3ccc(F)cc3Cl)c2)nc1
1200 s | CC(C)NC(=O)C1Cc2cc(C(F)(F)F)ccc2N2CCN(c3ccccc3Cl)CC12 (stereo not given)
1120 s | CCOc1ccc(NS(=O)(=O)c2cc(-c3cc(C(F)(F)F)on3)sc2C)cc1
765 s | Cc1ccc(-n2nc(C)c(S(=O)(=O)Nc3ccc(S(N)(=O)=O)cc3)c2C)cc1
976 s | Cc1ccc(S(=O)(=O)N(C)C)cc1-c1nnc(-c2ccc(F)cc2)o1
788 s | O=C(O)c1cn(Cc2ccccc2)c(=O)c2ccccc12
797 s | CCCC(=O)N1CCCN(C2=NS(=O)(=O)C(c3ccc(C)cc3)=C2C)CC1
626 s | CCOC(=O)c1nc(N2CCOCC2)c2ccccc2n1
646 s | CCCC(=O)Nc1ccc2c(c1)CC(C(=O)NCCOC)CO2 (stereo not given)
716 s | COc1ccc(CC(=O)N2CCCC2c2cc(C)on2)cc1OC (stereo not given)
615 s | COc1ccc(S(=O)(=O)N(CC(=O)NO)CC(C)C)cc1
798 s | CCCn1cc(-c2nc(-c3cc(OC)c(OC)c(OC)c3)no2)c(=O)c2ccccc21
1140 s | CCn1c(C(=O)N2CCCC(C(=O)N3CCN(c4cccc(C)c4C)CC3)C2)cc2sccc21 (stereo not given)
1360 s | CCn1nccc1-c1cccc(-c2noc(-c3cccc(Cl)c3)n2)c1
616 s | Cc1cc(N2CCN(C(=O)CCc3ccccc3)CC2)nc2nncn12
824 s | O=C(Cn1c(=O)c2cccn2c2ccccc21)Nc1ccccc1F
943 s | Cc1cc(C)c(C)c(S(=O)(=O)N2CCn3c(nn(CC4CC4)c3=O)C2)c1C
600 s | CCn1c(=O)sc2cc(S(=O)(=O)N3CCC(C(=O)N4CCN(C)CC4)CC3)ccc21
699 s | O=C(NC1CC1)[C@@H]1C[C@H](Oc2ccccc2)CN1C(=O)c1cccs1
827 s | Cc1nnc(-c2ccc3ccn(CC(=O)N4CCN(c5ccc(F)cc5)CC4)c3c2)o1

RP-LC retention time | SMILES
892 s | COc1ccc(CNC(=O)c2c(O)c3cccnc3[nH]c2=O)cc1
776 s | Cc1cccc(N2CCN(C(=O)c3cn4ccccc4n3)CC2)c1C
1030 s | CCOC(=O)c1noc2ncnc(Nc3ccc(C)cc3C)c12
792 s | COc1ccc(NC(=O)Cn2c(=O)c(CCC(=O)NC3CCCC3)nc3ccccc32)c(OC)c1
1010 s | CCc1ccc(NS(=O)(=O)c2ccc3c(c2)C(=O)N(C)c2ncccc2O3)cc1
761 s | O=C(Nc1ccccc1F)C1CCc2sc(C(=O)N3CCCC3)cc2C1 (stereo not given)
588 s | COc1ccc(CN(C)Cc2cc(=O)c3cc(C)ccc3[nH]2)cc1OC
719 s | Fc1ccc(CSc2ncnc3nc[nH]c23)cc1
645 s | O=C(NCCCN1CCCCC1)c1ccc2ccnc(N3CCN(c4ccc(Cl)cc4)CC3)c2c1
1060 s | O=C1COc2ccccc2N1Cc1nc(-c2cccc(Cl)c2)no1
792 s | Cc1ccc(-c2ccc(N3CCCC(C(=O)N4CCC(C)CC4)C3)nn2)cc1C (stereo not given)
760 s | Cc1ccc(NC(=O)CN2C(=O)NC3(CCCCC3)C2=O)cc1
859 s | Cc1ccc(-c2cn3c(CC(=O)NCc4ccccc4C)csc3n2)cc1C
948 s | O=C(NC1CCCCCC1)C1CCCN(C(=O)c2cccc(C(F)(F)F)c2)C1 (stereo not given)
687 s | Cc1nc(S(=O)(=O)N2CCC(C(=O)N3CCN(c4ccccc4)CC3)CC2)cn1C
919 s | CCc1noc(-c2ccc(-n3cnc(C(=O)NC(C)c4ccccc4)c3)nc2)n1 (stereo not given)
768 s | O=C(c1ccco1)N1CCN(c2ccc(=O)n(-c3ccc(Cl)cc3)n2)CC1
944 s | COc1ccccc1NC(=O)Cn1nc2cc(-c3ccccc3)nc(C)n2c1=O
705 s | CN(C)C(CNC(=O)c1cc(-c2ccc3c(c2)OCCO3)on1)c1ccc(Cl)cc1 (stereo not given)
1060 s | O=S(=O)(c1ccc(-c2nnc(C3CCCC3)o2)o1)N1CCCCCC1
1040 s | COc1ccc(C2Cn3nnc(-c4nc(-c5ccc(OC)c(F)c5)no4)c3CO2)cc1 (stereo not given)
942 s | COc1ccc(Cl)cc1NC(=O)c1cc(C)n2nccc2n1
777 s | Cc1cccn2cc(C(=O)NCc3cccc(Cl)c3)nc12

RP-LC retention time | SMILES
860 s | COc1ccc(-c2nc(N3CCC(C)CC3)c3ccccc3n2)cc1
654 s | CCS(=O)(=O)N1CCN(C(=O)c2cc(-c3ccc(OC)cc3)n[nH]2)CC1
922 s | O=C1CCCc2nc(Nc3nc(-c4ccccc4)c4cc(Cl)ccc4n3)ncc21
842 s | Cc1ccc2c(c1)NC(=O)c1cc(NC(=O)Cc3ccc(F)cc3)ccc1O2
1020 s | CCCc1cc(C2CCCN2C(=O)Nc2cc(C)ccc2OC)no1 (stereo not given)
730 s | O=C(Cn1nc2n(c1=O)CCCCC2)Nc1ccc(Cl)cc1
722 s | CCN1CCN(S(=O)(=O)c2cccc(-c3nc(-c4ccccc4)no3)c2)CC1
705 s | O=C(Cn1c(=O)c2cc(C3CC3)nn2c2ncccc21)NC1CCCC1
620 s | Cc1cc(=O)n(CC(=O)Nc2ccc(F)c(F)c2)cn1
979 s | Cc1ccc(OC(=O)c2cc3c(C)nn(-c4ccccc4)c3s2)cc1C
656 s | O=C(NCCNC(=O)[C@@H]1CCCN1C(=O)c1ccc(F)cc1)c1ccc(F)cc1
924 s | O=C(Nc1ccc2sccc2c1)c1ccc([N+](=O)[O-])s1
883 s | C=CCNC(=O)c1cn(-c2ccc(-c3nc(C(C)(C)C)no3)cn2)cn1
742 s | COc1ccc2[nH]c(C(=O)N3CC(n4cc(COCC5CC5)nn4)C3)cc2c1
938 s | CCCCOc1ccccc1C1NC(=O)NC(C)=C1C(=O)OCc1ccco1 (stereo not given)
792 s | COC(=O)c1ncn2c1C(=O)N(Cc1ccccc1C)C(C)(C(=O)NC1CCCCC1)C2 (stereo not given)
915 s | Cc1ccsc1C(=O)Nc1cnc(N2CCCCC2)nc1
705 s | CCC(C(=O)Nc1ccc(-c2cn3ccc(C)nc3n2)cc1)c1ccccc1 (stereo not given)
981 s | CCOc1ccc(C2c3[nH]c4ccccc4c3CCN2C(=O)COC)cc1 (stereo not given)
993 s | CCCN1N=C(C(=O)N2CCC(C)CC2)S(=O)(=O)c2ccc(C)cc21

SMILES | RP-LC retention time
CCCn1cc(C(=O)NCc2ccncc2)c2cccnc21 | 572 s
